Assay results taken from US11479533B2, “Inhibitors of Rho associated coiled-coil containing protein kinase” (KADMON CORPORATION, LLC, priority 2017, dated 2022).

Columns and labels:
[1] = system: ppMlc (T18/S19) levels in A7R5 cells; test: A7R5 in-cell ELISA assay (ppMlc); assay type: cell-based, rat; conditions: Rattus norvegicus, A7R5, A7R5 cells, Table 2; read-out: pMLC IC50 (nM) A7R5
Experimental: Determination of compounds ROCK inhibitory activity in A7R5 cells: rat aortic smooth muscle cell line A7R5 cells were maintained and treated in DMEM medium with 10% of fetal bovine serum. Cells were seeded with density of 5,000 cells/well in 96-well plates for 24 hours and subsequently treated 90 min with testing compounds. Cells were then fixed and processed according to the In-Cell ELISA Colorimetric Detection Kit manual (Thermo Scientific).
A7R5 cells were treated with 9 points 2 fold serial dilution of compounds and ppMlc (T18/S19) levels were determined in order to calculate the cellular IC50s of the compounds.
An A7R5 in-cell ELISA assay was performed to determine ROCK inhibition of test articles. A7R5 cells were treated with 9 points 2-fold serial dilution of compounds and ppMlc (T18/S19) levels were determined to calculate cellular IC50 values of the compounds. […] A7R5 cells were treated with 9 points 2-fold serial dilution of compounds and ppMlc (T18/S19) levels were determined to calculate cellular IC50 values of the compounds using the nonlinear regression curve fit function of the GraphPad Prism software.

[2] = target: recombinant ROCK2 (amino acids 1-552) (Homo sapiens (Human), UniProt O75116); test: Z'-lyte kinase assay, ROCK2; assay type: biochemical
Chain of recombinant ROCK2 (amino acids 1-552) (O75116 1-552): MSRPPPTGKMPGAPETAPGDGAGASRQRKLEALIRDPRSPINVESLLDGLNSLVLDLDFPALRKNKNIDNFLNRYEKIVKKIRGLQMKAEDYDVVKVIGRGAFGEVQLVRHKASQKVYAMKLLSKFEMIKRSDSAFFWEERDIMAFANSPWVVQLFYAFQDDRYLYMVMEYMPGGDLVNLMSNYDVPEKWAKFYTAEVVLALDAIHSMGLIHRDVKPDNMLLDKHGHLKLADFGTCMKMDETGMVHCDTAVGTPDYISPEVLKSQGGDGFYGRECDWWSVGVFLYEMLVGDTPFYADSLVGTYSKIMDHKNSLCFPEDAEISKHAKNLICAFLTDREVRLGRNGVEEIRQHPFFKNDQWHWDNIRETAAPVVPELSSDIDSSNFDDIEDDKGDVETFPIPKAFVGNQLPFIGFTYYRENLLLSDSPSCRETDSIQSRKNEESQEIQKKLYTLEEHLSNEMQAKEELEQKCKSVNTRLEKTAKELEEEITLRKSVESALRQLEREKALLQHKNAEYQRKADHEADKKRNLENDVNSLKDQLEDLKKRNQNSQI
Experimental: Determination of compounds ROCK inhibitory activity in vitro (Z'lyte assay): recombinant ROCK1 (amino acids 1-535) and ROCK2 (amino acids 1-552) proteins were purchased from ThermoFisher Scientific. Compounds activities were measured by Z'-lyte kinase kit (ThermoFisher Scientific) and IC50s were calculated.
Compounds activities were measured by Z'-lyte kinase kit (ThermoFisher Scientific). […] IC50s were calculated using the GraphPad Prism software with kinase activities data that were collected from 9 points serial dilution of compounds treatment. The ROCK inhibition in A7R5 cells and NIH3T3 (Acta2-Luc) cells was performed as described above.
The percent inhibition rate was calculated by normalizing the kinase activity value obtained with compound treatment against DMSO control value and then applied to the equation, […]. IC50's were calculated using the nonlinear regression curve fit function of the GraphPad Prism software with kinase activities data measured with 9 points 2-fold serial dilution of compounds treatment.

[3] = system: ACTA2-promoter-driven-luciferase in NIH3T3 cells; test: NIH3T3 Acta2-promoter driven-luciferase assay; assay type: cell-based; conditions: Mus musculus, plus TGFβ1, 24 hr, read-out: NIH3T3, Acta2-luc, IC50
Experimental: NIH3T3 cells Acta2-promoter driven-luciferase assay: A NIH3T3 cell line stably expressing a luciferase reporter driven by the human ACTA2 gene promoter (−1000-1 bp) was established (NIH3T3-Acta2-luciferase). The cells were plated to confluence and treated with the test compounds plus TGFβ1 for 24 hr. Cells were then lysed and luciferase activity was measured using the LightSwitch luciferase kit from Active Motif.
ROCK inhibitors can be effectively rank ordered by ACTA2-promoter-driven-luciferase reporter cell assay. NIH3T3 cells stably expressing ACTA2-promoter-driven-luciferase were applied to measure ROCK compounds functional IC50's in cells. Cells were plated in 96 well plates to confluence and treated with 9 points serial dilution of compounds in combination with TGFβ1 for 24 hr. Luciferase activities were measured and compound's IC50's were calculated using the nonlinear regression curve fit function of the GraphPad Prism software. Compounds of the invention gave in cell IC50's under 200 nM, see FIG. 1c.

Row | SMILES | IC50 [1] [nM] | IC50 [2] [nM] | IC50 [3] [nM]
1 | CNC(C(=O)Nc1ccc(-c2cn[nH]c2)cc1)c1ccc(C(=O)OC)cc1 (stereo not drawn) [Example 34, methyl 4-(2-((4-(1H-pyrazol-4-yl)phenyl)amino)-1-(methylamino)-2-oxoethyl)benzoate] | > 5000 | 310 | > 5000
2 | CNC(C(=O)Nc1ccc(-c2cn[nH]c2)cc1)c1ccc2nc(C)[nH]c2c1 (stereo not drawn) [Example 35, N-(4-(1H-pyrazol-4-yl)phenyl)-2-(2-methyl-1H-benzo[d]imidazol-6-yl)-2-(methylamino)acetamide] | > 5000 | 486 | > 5000
3 | COCCCNC(C(=O)Nc1ccc(-c2cn[nH]c2)cc1)c1cccc(OC)c1 (stereo not drawn) [Example 36, N-(4-(1H-pyrazol-4-yl)phenyl)-2-(3-methoxyphenyl)-2-((3-methoxypropyl)amino)acetamide] | 1580 | 16 | 1550
4 | CCOCCNC(C(=O)Nc1ccc(-c2cn[nH]c2)cc1)c1cccc(OC)c1 (stereo not drawn) [Example 37, N-(4-(1H-pyrazol-4-yl)phenyl)-2-((2-ethoxyethyl)amino)-2-(3-methoxyphenyl)acetamide] | 977 | 37 | 2310
5 | COc1cccc(C(NCCCN(C)C)C(=O)Nc2ccc(-c3cn[nH]c3)cc2)c1 (stereo not drawn) [Example 38, N-(4-(1H-pyrazol-4-yl)phenyl)-2-((3-(dimethylamino)propyl)amino)-2-(3-methoxyphenyl)acetamide] | 338 | 8.7 | 1620
6 | COc1cccc(C(NCC(=O)N(C)C)C(=O)Nc2ccc(-c3cn[nH]c3)cc2)c1 (stereo not drawn) [Example 39, N-(4-(1H-pyrazol-4-yl)phenyl)-2-((2-(dimethylamino)-2-oxoethyl)amino)-2-(3-methoxyphenyl)acetamide] | 1670 | 16 | > 5000
7 | COc1cccc(C(NCCOC(C)C)C(=O)Nc2ccc(-c3cn[nH]c3)cc2)c1 (stereo not drawn) [Example 40, N-(4-(1H-pyrazol-4-yl)phenyl)-2-((2-isopropoxyethyl)amino)-2-(3-methoxyphenyl)acetamide] | 632 | 45 | 826
8 | COc1cccc(C(NCC(N)=O)C(=O)Nc2ccc(-c3cn[nH]c3)cc2)c1 (stereo not drawn) [Example 41, N-(4-(1H-pyrazol-4-yl)phenyl)-2-((2-amino-2-oxoethyl)amino)-2-(3-methoxyphenyl)acetamide] | 1250 | 12 | > 5000
9 | CNC(=O)CNC(C(=O)Nc1ccc(-c2cn[nH]c2)cc1)c1cccc(OC)c1 (stereo not drawn) [Example 44, N-(4-(1H-pyrazol-4-yl)phenyl)-2-(3-methoxyphenyl)-2-((2-(methylamino)-2-oxoethyl)amino)acetamide] | 2020 | 42 | 2230
10 | COc1cccc(C(NCc2cn[nH]c2)C(=O)Nc2ccc(-c3cn[nH]c3)cc2)c1 (stereo not drawn) [Example 45, 2-(((1H-pyrazol-4-yl)methyl)amino)-N-(4-(1H-pyrazol-4-yl)phenyl)-2-(3-methoxyphenyl)acetamide] | 1360 | 53 | 1460
11 | CCN(CCOC)C(C(=O)Nc1ccc(-c2cn[nH]c2)cc1)c1cccc(OC)c1 (stereo not drawn) [Example 46, N-(4-(1H-pyrazol-4-yl)phenyl)-2-(ethyl(2-methoxyethyl)amino)-2-(3-methoxyphenyl)acetamide] | 1880 | 107 | 1200
12 | COCCN(C)C(C(=O)Nc1ccc(-c2cn[nH]c2)cc1)c1cccc(OC)c1 (stereo not drawn) [Example 47, N-(4-(1H-pyrazol-4-yl)phenyl)-2-((2-methoxyethyl)(methyl)amino)-2-(3-methoxyphenyl)acetamide] | 321 | 30 | 465
13 | COCCNC(C(=O)Nc1cc(F)c(-c2cn[nH]c2)cc1OCCN(C)C)c1cccc(OC)c1 (stereo not drawn) [Example 48, N-(2-(2-(dimethylamino)ethoxy)-5-fluoro-4-(1H-pyrazol-4-yl)phenyl)-2-((2-methoxyethyl)amino)-2-(3-methoxyphenyl)acetamide] | 314 | 67 | 1010
14 | COc1cccc(C(NCCN2CCOCC2)C(=O)Nc2ccc(-c3cn[nH]c3)cc2)c1 (stereo not drawn) [Example 50, N-(4-(1H-pyrazol-4-yl)phenyl)-2-(3-methoxyphenyl)-2-((2-morpholinoethyl)amino)acetamide] | 97 | 2.4 | 92
15 | COCCN(C)C(C(=O)Nc1cc(F)c(-c2cn[nH]c2)cc1OCCN(C)C)c1cccc(OC)c1 (stereo not drawn) [Example 51, N-(2-(2-(dimethylamino)ethoxy)-5-fluoro-4-(1H-pyrazol-4-yl)phenyl)-2-((2-methoxyethyl)(methyl)amino)-2-(3-methoxyphenyl)acetamide] | 54 | 8.1 | 101
16 | COc1cccc(C(NCCN2CCCC2)C(=O)Nc2ccc(-c3cn[nH]c3)cc2)c1 (stereo not drawn) [Example 52, N-(4-(1H-pyrazol-4-yl)phenyl)-2-(3-methoxyphenyl)-2-((2-(pyrrolidin-1-yl)ethyl)amino)acetamide] | 106 | 17 | 675
17 | COCC1(NC(C(=O)Nc2ccc(-c3cn[nH]c3)cc2)c2cccc(OC)c2)CC1 (stereo not drawn) [Example 53, N-(4-(1H-pyrazol-4-yl)phenyl)-2-((1-(methoxymethyl)cyclopropyl)amino)-2-(3-methoxyphenyl)acetamide] | 759 | 31 | 1260
18 | COc1cccc(C(NCCOCC(F)(F)F)C(=O)Nc2ccc(-c3cn[nH]c3)cc2)c1 (stereo not drawn) [Example 54, N-(4-(1H-pyrazol-4-yl)phenyl)-2-(3-methoxyphenyl)-2-((2-(2,2,2-trifluoroethoxy)ethyl)amino)acetamide] | 1520 | 68 | 2670
19 | COCCNC(C(=O)Nc1ccc(-c2cn[nH]c2)c(F)c1)c1cccc(OC)c1 (stereo not drawn) [Example 55, N-(3-fluoro-4-(1H-pyrazol-4-yl)phenyl)-2-((2-methoxyethyl)amino)-2-(3-methoxyphenyl)acetamide] | 506 | 17 | 601
20 | COCCNC(C(=O)Nc1ccc(-c2cn[nH]c2)c(OC)c1)c1cccc(OC)c1 (stereo not drawn) [Example 56, N-(3-methoxy-4-(1H-pyrazol-4-yl)phenyl)-2-((2-methoxyethyl)amino)-2-(3-methoxyphenyl)acetamide] | 115 | 5.3 | 78
21 | COc1cccc(C(NCCN(C)C)C(=O)Nc2ccc(-c3cn[nH]c3)cc2)c1 (stereo not drawn) [Example 57, N-(4-(1H-pyrazol-4-yl)phenyl)-2-((2-(dimethylamino)ethyl)amino)-2-(3-methoxyphenyl)acetamide] | 74 | 10 | 175
22 | CN[C@H](C(=O)Nc1ccc(-c2cn[nH]c2)cc1)c1ccc(Cl)cc1 [Example 64, (S)—N-(4-(1H-pyrazol-4-yl)phenyl)-2-(4-chlorophenyl)-2-(methylamino)acetamide] | 379 | 24 | 227
23 | CN[C@@H](C(=O)Nc1ccc(-c2cn[nH]c2)cc1)c1ccc(Cl)cc1 [Example 65, (R)—N-(4-(1H-pyrazol-4-yl)phenyl)-2-(4-chlorophenyl)-2-(methylamino)acetamide] | 65 | 1.2 | 51
24 | CNC(=O)c1cccc(C(NC)C(=O)Nc2ccc(-c3cn[nH]c3)cc2)c1 (stereo not drawn) [Example 67, 3-(2-((4-(1H-pyrazol-4-yl)phenyl)amino)-1-(methylamino)-2-oxoethyl)-N-methylbenzamide] | 269 | 1.9 | 296
25 | CNC(C(=O)Nc1ccc(-c2cn[nH]c2)cc1)c1ccc(C(=O)O)cc1 (stereo not drawn) [Example 68, 4-(2-((4-(1H-pyrazol-4-yl)phenyl)amino)-1-(methylamino)-2-oxoethyl)benzoic acid] | > 5000 | 451 | > 5000
